# Data: US7566808B2, “Management of ophthalmologic disorders, including macular degeneration” (President and Fellows of Harvard College, priority 2004, dated 2009)
# How the values were obtained:
# Format in all cases: in vivo
# Sprague Dawley rats = assay: 11-cis-retinal regeneration after bleaching in rats; details: for average inhibition of 11-cis-retinal regeneration: 50 mg/kg i.p. single injection, rats
# Protocol: To establish whether recovery of the dark-adapted rod b-wave was retarded because of an effect on 11-cis-retinal synthesis we studied the effects of TDT on 11-cis-retinal regeneration in rats and mice. The 11-cis-retinal that is regenerated is essentially all bound to rhodopsin in rodents, so that measuring its level is equivalent to measuring the rhodopsin content. Initial experiments were performed on Sprague Dawley rats because similar experiments using 13-RA were previously carried out using these animals so that ready comparisons of potency and effectiveness can be made. […] Accordingly, in the current experiments, the rats were given single injections (i.p.) of TDT (TDH) (50 mg/kg in DMSO), 13-RA (50 mg/kg in DMSO), and DMSO alone. After injecting the analogs, the rats were dark adapted for 2 h, and then exposed to light that led to <10% of dark adapted 11-cis-retinal in these animals, compared to dark adapted controls (data not shown). After allowing the bleached rats to dark-adapt again for 30 min, the animals were sacrificed, and the regenerated 11-cis-retinal was determined as indicated in Methods. In these experiments, the amount of resynthesized 11-cis-retinal, the chromophore of rhodopsin, is measured by HPLC and compared to the amounts of all-trans-retinyl ester precursor.
# These figures show results of HPLC analysis of extracted retinoids from drug treated rats. […] In FIG. 28A, the relative amounts of 11-cis-retinal-syn-oxime and all-trans-(cis)-retinyl esters are shown for the control (−13-RA) (top) and drug treated animals (bottom). In FIG. 28B, the corresponding data are shown for the TDT treated rats (top-control, bottom TDT treated). In this case, the ester pool in the drug treated rat is largely, if not exclusively, all-trans. […] Upon repetition of the experiments two further times the average inhibition values are as follows: 13-RA (78±2%), TDT (79±4%), and TDH (55±2%). These percent inhibition values are generated by comparing the integrated areas under the retinyl ester and 11-cis-retinal-syn-oxime peaks. (Materials and Methods).
# Balb/c mice = assay: 11-cis-retinal regeneration after bleaching in mice
# Protocol: Animal Studies: Protocols were approved by the Standing Committee on Animal Care of Harvard Medical School, the Institutional Animal Care and Use Committee of Columbia University and complied with guidelines set forth by The Association for Research in Vision and Ophthalmology. 7 week old male Balb/c albino mice and 7 week old male Sprague-Dawley rats were from Charles River Breeding Laboratories and were housed in 12:12 h light:dark cycle. 8-10 week old Abcr null mutant mice (129/SV×C57BL/6J) were generated as formerly described (12,20) and Abcr^−/− and Abcr^+/+ mice were raised under 12-hour on-off cyclic lighting with an in-cage illuminance of 30-50 lux. In Abcr^−/− and Abcr^+/+ mice, Rpe65 was 9 sequenced as reported previously.
# Similar experiments with inhibitors were also performed in Balb/c mice. Here again inhibition is observed, but the effects are less pronounced than in rats, both with 13-RA and the isoprenoid antagonists. The inhibition values are as follows: 13-RA (33±4%), TDT (35±2%), and TDH (24±6%). It is noteworthy that in rats the 11-cis chromophore is regenerated considerably more slowly than in mice.
# [1] = system: Abca4+/+ (Rpe65 450Leu, pigmented, 129/SV×C57BL/6J) mice; assay: ERG rod b-wave amplitude recovery after photo-bleaching; details: 50 mg/kg i.p., 3 days after treatment
# Protocol: Electroretinogram Determinations (ERG): Mice were dark-adapted overnight before all ERG experiments. To determine the acute effect of compounds under study, mice were given a single i.p. injection of […] Control (“untreated”) animals were injected with 25 uL of DMSO. Mice were anaesthetized with ketamine (80 mg/kg) and xylazine (5-10 mg/kg) and pupils were dilated with 1% phenylephrine and 1% cyclopentolate, followed by an exposure to 5000 lux bleaching light for 2 min.
# The ERG was recorded from the cornea with a cotton wick saline electrodes for about 50 min immediately after bleaching. Subcutaneous 30 gauge needles on the forehead and trunk were used as reference and ground electrodes, respectively. The animals rested on a heater maintaining the body temperature at 37° C. The light stimulus was obtained from a ganzfeld stimulator having a stroboscope (PS33 Grass Instruments Inc., West Warwick, R.I.) removed from its housing and recessed above and behind the head of the mouse. The flash was diffused to cover the ganzfeld homogeneously. Maximum flash intensity was measured with a calibrated light meter (J16 Tektronics Instruments, Beaverton, Oreg.). Responses were averaged by a Macintosh computer-controlled data acquisition system (PowerLab, AD Instruments, Mountain View, Calif.) at a frequency of 0.1 Hz. […]
# The same animals were subjected to ERG experiments according to exactly the same protocol 3 days later, except no (repeated) injection of compounds was performed.
# Acute effects: In order to determine whether TDT and TDH have an effect on the visual cycle in vivo, the overnight dark-adapted Abca4^+/+ (Rpe65 450Leu, pigmented, 129/SV×C57BL/6J) mice received single (i.p.) injections of the two compounds at 50 mg/kg. […]
# Results are averaged from three mice in each group with SD bars shown. Both isoprenoids delayed the recovery of dark-adapted visual responses to an extent similar to that of 13-RA as judged from dark-adapted ERG b-wave amplitudes recorded using dim light flashes delivered immediately before and at regular intervals after photo-bleaching.
# [2] = Tolerability in treated animals; details: even when administered every 48 h
# From the text: With respect to the pharmacology of the isoprenoid mRPE65 antagonists, it should be noted that the effects of both TDT and TDH are substantially more persistent than with 13-RA, probably because they are more hydrophobic than the retinoic acids. An increase in hydrophobicity tends to slow down rates of elimination of drugs.
SMILES,average inhibition of 11-cis-retinal regeneration (Sprague Dawley rats) [%],inhibition of 11-cis-retinal regeneration (Balb/c mice) [%],effect on rod b-wave recovery [1],"inhibitory effect on 11-cis-retinal regeneration (Sprague Dawley rats; 50 mg/kg i.p., FIG. 28C)",tolerability / signs of toxicity [2]
"CC1=C(/C=C/C(C)=C/C=C/C(C)=C\C(=O)O)C(C)(C)CCC1 [13-cis-retinoic acid, reference compound]",78±2,33±4,no sustained effect,,
"CCCCCCCCCCCCCCCCNC(=O)/C=C(\C)CC/C=C(\C)CCC=C(C)C [TDH, 3,7,11-Trimethyl-dodeca-2,6,10-trienoic acid hexadecylamide]",55±2,24±6,substantial effect,less pronounced than with TDT,no obvious signs of toxicity and/or distress
"CCCCCCCCCCC(=O)/C=C(\C)CC/C=C(\C)CCC=C(C)C [TDT, 13,17,21-Trimethyl-docosa-12,16,20-trien-11-one]",79±4,35±2,substantial effect,,no obvious signs of toxicity and/or distress
